Experimental data: patent publication US20120122860A1, “SOLID FORMS OF SULFONAMIDES AND AMINO ACIDS” (Plexxikon, Inc., priority 2009, published 2012)

Experiments:
Kdr = Kdr (Homo sapiens, UniProt P35968); experiment: Kinase activity assay, Kdr
Src = Src (Homo sapiens, UniProt P12931); experiment: Kinase activity assay, Src
C-Raf = C-Raf (Homo sapiens, UniProt P04049); experiment: Kinase activity assay, C-Raf
A-Raf = target: T1, A-Raf (Homo sapiens, UniProt P10398); experiment: Kinase activity assay, A-Raf
T1 sequence (P10398 1-606): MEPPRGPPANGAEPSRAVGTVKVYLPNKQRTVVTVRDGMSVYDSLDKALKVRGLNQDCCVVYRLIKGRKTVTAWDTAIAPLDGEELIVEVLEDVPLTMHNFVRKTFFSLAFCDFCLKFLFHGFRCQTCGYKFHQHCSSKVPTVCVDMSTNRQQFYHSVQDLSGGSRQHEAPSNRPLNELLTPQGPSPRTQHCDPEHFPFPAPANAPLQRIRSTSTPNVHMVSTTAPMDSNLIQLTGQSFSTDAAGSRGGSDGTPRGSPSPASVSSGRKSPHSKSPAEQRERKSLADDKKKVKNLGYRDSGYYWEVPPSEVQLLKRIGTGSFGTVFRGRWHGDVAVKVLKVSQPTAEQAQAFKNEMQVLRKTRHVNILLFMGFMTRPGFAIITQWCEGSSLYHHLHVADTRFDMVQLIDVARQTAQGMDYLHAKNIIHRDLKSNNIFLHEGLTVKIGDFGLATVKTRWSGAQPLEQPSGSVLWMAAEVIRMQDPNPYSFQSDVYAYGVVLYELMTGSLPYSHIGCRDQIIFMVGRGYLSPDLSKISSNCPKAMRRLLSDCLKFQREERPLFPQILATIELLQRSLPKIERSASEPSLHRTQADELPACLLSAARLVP

Fms = Fms (Homo sapiens, UniProt P07333); experiment: Kinase activity assay, Fms
B-Raf V600E = B-Raf V600E (Homo sapiens, UniProt P15056, V600E); experiment: Kinase activity assay, B-Raf V600E; type: biochemical; settings: read-out: activity toward kinase B-Raf V600E, IC50
B-Raf = B-Raf (Homo sapiens, UniProt P15056); experiment: Kinase activity assay, B-Raf; type: biochemical; settings: read-out: activity toward kinase B-Raf, IC50
MAP4K4 = MAP4K4 (Homo sapiens, UniProt O95819); experiment: Kinase activity assay, MAP4K4
Kit = Kit (Homo sapiens, UniProt P10721); experiment: Kinase activity assay, Kit

Measured: IC50

Chain of Kdr (P35968 20-1356): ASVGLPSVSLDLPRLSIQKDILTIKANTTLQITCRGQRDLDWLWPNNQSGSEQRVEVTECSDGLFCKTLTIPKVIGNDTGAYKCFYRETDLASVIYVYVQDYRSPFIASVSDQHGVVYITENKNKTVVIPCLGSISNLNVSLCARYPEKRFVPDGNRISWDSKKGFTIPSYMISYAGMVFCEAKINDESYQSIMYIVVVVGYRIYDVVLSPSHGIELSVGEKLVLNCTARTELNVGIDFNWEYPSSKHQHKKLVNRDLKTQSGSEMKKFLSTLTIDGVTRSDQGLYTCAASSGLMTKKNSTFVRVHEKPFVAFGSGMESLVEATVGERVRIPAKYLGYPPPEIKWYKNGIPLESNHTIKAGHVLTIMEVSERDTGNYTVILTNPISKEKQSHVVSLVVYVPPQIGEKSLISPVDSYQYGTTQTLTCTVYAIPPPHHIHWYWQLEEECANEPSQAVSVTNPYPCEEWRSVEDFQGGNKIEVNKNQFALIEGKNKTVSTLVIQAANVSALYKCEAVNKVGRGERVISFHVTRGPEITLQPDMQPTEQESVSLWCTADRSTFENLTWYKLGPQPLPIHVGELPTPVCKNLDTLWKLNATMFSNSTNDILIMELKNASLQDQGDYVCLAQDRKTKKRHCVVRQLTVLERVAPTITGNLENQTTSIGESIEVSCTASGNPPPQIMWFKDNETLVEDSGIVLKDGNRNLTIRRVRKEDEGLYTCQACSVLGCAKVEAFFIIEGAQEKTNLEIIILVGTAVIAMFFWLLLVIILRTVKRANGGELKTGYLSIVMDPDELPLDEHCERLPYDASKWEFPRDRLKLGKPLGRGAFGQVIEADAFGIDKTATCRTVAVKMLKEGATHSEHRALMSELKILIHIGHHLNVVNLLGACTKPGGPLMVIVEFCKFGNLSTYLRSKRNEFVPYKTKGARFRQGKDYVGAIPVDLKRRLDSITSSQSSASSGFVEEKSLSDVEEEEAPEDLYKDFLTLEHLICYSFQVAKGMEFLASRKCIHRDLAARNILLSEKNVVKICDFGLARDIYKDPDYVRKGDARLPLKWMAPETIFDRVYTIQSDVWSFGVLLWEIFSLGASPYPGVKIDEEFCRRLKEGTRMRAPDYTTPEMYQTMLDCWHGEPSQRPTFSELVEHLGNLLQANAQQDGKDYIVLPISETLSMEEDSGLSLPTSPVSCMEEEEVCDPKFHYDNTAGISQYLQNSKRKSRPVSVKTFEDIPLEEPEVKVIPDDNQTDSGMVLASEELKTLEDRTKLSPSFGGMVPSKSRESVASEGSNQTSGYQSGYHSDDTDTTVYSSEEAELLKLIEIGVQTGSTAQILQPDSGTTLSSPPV
Chain of B-Raf (P15056 whole entry): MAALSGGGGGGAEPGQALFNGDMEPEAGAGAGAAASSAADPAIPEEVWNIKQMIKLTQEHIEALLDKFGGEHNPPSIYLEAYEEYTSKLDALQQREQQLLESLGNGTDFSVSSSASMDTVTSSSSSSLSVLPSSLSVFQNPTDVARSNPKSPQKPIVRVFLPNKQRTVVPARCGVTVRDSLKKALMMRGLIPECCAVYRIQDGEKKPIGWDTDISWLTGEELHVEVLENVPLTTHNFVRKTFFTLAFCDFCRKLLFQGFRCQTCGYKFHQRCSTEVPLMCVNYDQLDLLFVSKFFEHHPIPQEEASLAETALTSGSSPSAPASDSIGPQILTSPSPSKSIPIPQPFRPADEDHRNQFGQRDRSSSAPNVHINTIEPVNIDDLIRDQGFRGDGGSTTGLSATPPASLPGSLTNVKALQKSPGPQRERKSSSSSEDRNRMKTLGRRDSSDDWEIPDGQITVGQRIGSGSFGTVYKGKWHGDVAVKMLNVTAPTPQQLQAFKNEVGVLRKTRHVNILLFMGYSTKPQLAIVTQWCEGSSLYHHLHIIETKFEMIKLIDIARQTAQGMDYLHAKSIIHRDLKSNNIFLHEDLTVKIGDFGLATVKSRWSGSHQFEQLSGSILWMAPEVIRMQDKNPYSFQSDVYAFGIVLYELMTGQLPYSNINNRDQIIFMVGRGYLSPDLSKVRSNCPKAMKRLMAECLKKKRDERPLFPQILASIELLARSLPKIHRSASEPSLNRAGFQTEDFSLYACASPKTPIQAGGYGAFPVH
Chain of B-Raf V600E (P15056 whole entry V600E): as the sequence (P15056 whole entry) above, with V600E counted along it
Chain of MAP4K4 (O95819 whole entry): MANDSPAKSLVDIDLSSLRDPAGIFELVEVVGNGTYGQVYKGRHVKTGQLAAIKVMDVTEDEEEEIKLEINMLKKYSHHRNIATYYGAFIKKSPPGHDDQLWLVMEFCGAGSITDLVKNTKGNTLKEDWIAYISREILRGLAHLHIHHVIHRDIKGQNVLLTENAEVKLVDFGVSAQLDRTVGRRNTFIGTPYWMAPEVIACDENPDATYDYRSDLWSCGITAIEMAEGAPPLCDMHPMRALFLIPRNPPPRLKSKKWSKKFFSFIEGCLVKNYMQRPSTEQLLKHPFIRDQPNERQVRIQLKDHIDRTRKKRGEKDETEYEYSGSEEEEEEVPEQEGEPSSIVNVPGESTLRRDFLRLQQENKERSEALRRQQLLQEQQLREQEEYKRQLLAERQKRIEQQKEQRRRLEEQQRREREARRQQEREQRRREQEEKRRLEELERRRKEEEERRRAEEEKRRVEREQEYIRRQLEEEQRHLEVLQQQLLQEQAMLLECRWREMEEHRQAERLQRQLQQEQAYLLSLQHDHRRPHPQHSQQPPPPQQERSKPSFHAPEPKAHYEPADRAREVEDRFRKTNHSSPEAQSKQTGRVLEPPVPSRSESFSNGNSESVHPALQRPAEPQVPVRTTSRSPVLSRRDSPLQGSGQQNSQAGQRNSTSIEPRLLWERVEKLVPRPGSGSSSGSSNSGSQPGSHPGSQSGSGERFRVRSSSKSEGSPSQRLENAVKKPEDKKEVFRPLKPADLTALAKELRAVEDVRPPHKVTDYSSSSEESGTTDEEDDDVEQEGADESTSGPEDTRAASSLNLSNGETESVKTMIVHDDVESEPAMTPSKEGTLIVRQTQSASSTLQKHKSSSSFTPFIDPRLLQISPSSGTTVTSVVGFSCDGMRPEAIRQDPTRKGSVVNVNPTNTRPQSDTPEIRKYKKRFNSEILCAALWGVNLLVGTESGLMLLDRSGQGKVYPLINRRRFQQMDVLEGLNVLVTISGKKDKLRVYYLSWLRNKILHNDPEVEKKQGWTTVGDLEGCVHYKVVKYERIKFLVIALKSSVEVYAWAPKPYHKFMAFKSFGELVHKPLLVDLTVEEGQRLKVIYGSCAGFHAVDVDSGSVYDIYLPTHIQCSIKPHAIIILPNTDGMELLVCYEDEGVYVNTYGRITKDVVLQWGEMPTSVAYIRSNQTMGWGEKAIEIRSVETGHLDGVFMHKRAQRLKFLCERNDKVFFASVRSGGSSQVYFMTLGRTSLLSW
Chain of Fms (P07333 20-972): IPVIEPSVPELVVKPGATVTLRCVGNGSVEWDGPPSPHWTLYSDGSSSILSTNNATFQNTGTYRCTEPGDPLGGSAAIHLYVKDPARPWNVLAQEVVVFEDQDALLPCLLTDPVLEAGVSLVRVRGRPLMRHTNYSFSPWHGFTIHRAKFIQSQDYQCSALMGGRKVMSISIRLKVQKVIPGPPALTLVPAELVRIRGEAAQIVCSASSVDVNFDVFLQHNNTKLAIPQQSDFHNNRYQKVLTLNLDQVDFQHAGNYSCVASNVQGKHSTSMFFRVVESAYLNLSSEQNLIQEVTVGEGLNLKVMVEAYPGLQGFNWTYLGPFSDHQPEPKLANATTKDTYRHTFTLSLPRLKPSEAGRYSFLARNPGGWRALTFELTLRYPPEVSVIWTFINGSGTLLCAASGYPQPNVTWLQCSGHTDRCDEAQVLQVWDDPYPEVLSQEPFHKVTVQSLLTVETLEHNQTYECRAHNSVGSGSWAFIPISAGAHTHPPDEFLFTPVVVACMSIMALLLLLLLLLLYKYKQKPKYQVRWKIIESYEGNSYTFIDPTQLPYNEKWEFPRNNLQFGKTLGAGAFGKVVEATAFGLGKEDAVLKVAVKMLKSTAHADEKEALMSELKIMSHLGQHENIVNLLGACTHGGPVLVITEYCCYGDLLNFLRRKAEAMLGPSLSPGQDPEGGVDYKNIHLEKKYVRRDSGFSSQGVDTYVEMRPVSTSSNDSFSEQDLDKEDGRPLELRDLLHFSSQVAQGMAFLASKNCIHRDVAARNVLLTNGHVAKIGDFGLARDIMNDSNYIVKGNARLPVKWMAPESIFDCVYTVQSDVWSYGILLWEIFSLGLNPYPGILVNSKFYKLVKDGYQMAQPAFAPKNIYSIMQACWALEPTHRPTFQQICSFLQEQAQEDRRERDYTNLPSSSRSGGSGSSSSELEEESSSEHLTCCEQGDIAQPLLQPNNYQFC
Chain of Src (P12931 whole entry): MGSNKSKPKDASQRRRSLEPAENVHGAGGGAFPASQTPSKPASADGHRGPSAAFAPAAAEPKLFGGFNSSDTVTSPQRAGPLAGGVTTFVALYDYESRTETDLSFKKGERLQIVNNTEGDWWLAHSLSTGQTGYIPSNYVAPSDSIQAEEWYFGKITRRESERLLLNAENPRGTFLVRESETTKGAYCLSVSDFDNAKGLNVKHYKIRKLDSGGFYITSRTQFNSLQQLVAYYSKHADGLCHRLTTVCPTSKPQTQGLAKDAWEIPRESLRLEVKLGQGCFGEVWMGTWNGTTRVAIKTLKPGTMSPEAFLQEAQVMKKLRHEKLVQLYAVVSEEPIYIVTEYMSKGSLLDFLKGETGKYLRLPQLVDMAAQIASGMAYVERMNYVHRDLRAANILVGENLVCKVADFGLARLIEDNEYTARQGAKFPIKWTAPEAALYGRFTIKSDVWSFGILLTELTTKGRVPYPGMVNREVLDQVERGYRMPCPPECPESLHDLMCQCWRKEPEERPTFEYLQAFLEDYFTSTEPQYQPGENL

O=C(c1c(F)ccc(NS(=O)(=O)CC(F)(F)F)c1F)c1c[nH]c2ncc(Cl)cc12 [P-2339, 2,2,2-Trifluoro-ethanesulfonic acid [3-(5-chloro-1H-pyrrolo[2,3-b]pyridine-3-carbonyl)-2,4-difluoro-phenyl]-amide]
not listed: Kit
≤ 10 µM: all other assays above

CCCS(=O)(=O)Nc1ccc(F)c(C(=O)c2c[nH]c3ncc(CCC(=O)OC)cc23)c1F [P-2230, 3-{3-[2,6-Difluoro-3-(propane-1-sulfonylamino)-benzoyl]-1H-pyrrolo[2,3-b]pyridin-5-yl}-propionic acid methyl ester]
≤ 10 µM: all assays above

O=C(c1c(F)ccc(NS(=O)(=O)c2cc(F)ccc2F)c1F)c1c[nH]c2nccc(Cl)c12 [P-2018, N-[3-(4-Chloro-1H-pyrrolo[2,3-b]pyridine-3-carbonyl)-2,4-difluoro-phenyl]-2,5-difluoro-benzenesulfonamide]
≤ 10 µM: all assays above

O=C(c1c(F)ccc(NS(=O)(=O)CC(F)(F)F)c1F)c1c[nH]c2nccc(Cl)c12 [P-2338, 2,2,2-Trifluoro-ethanesulfonic acid [3-(4-chloro-1H-pyrrolo[2,3-b]pyridine-3-carbonyl)-2,4-difluoro-phenyl]-amide]
not listed: Fms
≤ 10 µM: all other assays above

CC(C)S(=O)(=O)Nc1ccc(F)c(C(=O)c2c[nH]c3ncc(Cl)cc23)c1F [P-2275, Propane-2-sulfonic acid [3-(5-chloro-1H-pyrrolo[2,3-b]pyridine-3-carbonyl)-2,4-difluoro-phenyl]-amide]
not listed: Fms
≤ 10 µM: all other assays above

CCS(=O)(=O)Nc1ccc(F)c(C(=O)c2c[nH]c3ncc(OC)cc23)c1F [P-2272, Ethanesulfonic acid [2,4-difluoro-3-(5-methoxy-1H-pyrrolo[2,3-b]pyridine-3-carbonyl)-phenyl]-amide]
not listed: Fms
≤ 10 µM: all other assays above

Cc1cnc2[nH]cc(C(=O)c3c(F)ccc(NS(=O)(=O)c4ccccc4F)c3F)c2c1 [P-2014, N-[2,4-Difluoro-3-(5-methyl-1H-pyrrolo[2,3-b]pyridine-3-carbonyl)-phenyl]-2-fluoro-benzenesulfonamide]
not listed: Fms
≤ 10 µM: all other assays above

N#Cc1ccnc2[nH]cc(C(=O)c3c(F)ccc(NS(=O)(=O)c4cc(F)ccc4F)c3F)c12 [P-2036, N-[3-(4-Cyano-1H-pyrrolo[2,3-b]pyridine-3-carbonyl)-2,4-difluoro-phenyl]-2,5-difluoro-benzenesulfonamide]
not listed: Fms
≤ 10 µM: all other assays above

O=C(c1c(F)ccc(NS(=O)(=O)CCC(F)(F)F)c1F)c1c[nH]c2nccc(Cl)c12 [P-2329, 3,3,3-Trifluoro-propane-1-sulfonic acid [3-(4-chloro-1H-pyrrolo[2,3-b]pyridine-3-carbonyl)-2,4-difluoro-phenyl]-amide]
not listed: Fms
≤ 10 µM: all other assays above

COc1cnc2[nH]cc(C(=O)c3c(F)ccc(NS(=O)(=O)CC(F)(F)F)c3F)c2c1 [P-2335, 2,2,2-Trifluoro-ethanesulfonic acid [2,4-difluoro-3-(5-methoxy-1H-pyrrolo[2,3-b]pyridine-3-carbonyl)-phenyl]-amide]
not listed: Fms
≤ 10 µM: all other assays above

O=C(c1c(F)ccc(NS(=O)(=O)c2cccc(F)c2)c1F)c1c[nH]c2nccc(Cl)c12 [P-2019, N-[3-(4-Chloro-1H-pyrrolo[2,3-b]pyridine-3-carbonyl)-2,4-difluoro-phenyl]-3-fluoro-benzenesulfonamide]
not listed: Fms
≤ 10 µM: all other assays above

CCCS(=O)(=O)Nc1ccc(F)c(C(=O)c2c[nH]c3ncc(-c4ccc(N5CCCC5)nc4)cc23)c1F [P-2231, Propane-1-sulfonic acid {2,4-difluoro-3-[5-(6-pyrrolidin-1-yl-pyridin-3-yl)-1H-pyrrolo[2,3-b]pyridine-3-carbonyl]-phenyl}-amide]
not listed: Fms
≤ 10 µM: all other assays above

COc1cnc2[nH]cc(C(=O)c3c(F)ccc(NS(=O)(=O)CCC(F)(F)F)c3F)c2c1 [P-2327, 3,3,3-Trifluoro-propane-1-sulfonic acid [2,4-difluoro-3-(5-methoxy-1H-pyrrolo[2,3-b]pyridine-3-carbonyl)-phenyl]-amide]
not listed: Fms
≤ 10 µM: all other assays above

Cc1cnc2[nH]cc(C(=O)c3c(F)ccc(NS(=O)(=O)c4cccc(F)c4)c3F)c2c1 [P-2016, N-[2,4-Difluoro-3-(5-methyl-1H-pyrrolo[2,3-b]pyridine-3-carbonyl)-phenyl]-3-fluoro-benzenesulfonamide]
not listed: Fms
≤ 10 µM: all other assays above
